# pEC50: −log10 of the molar value.
# Experiments:
# [1] = system: mice; experiment: Assessment of diarrhea in mice; type: in vivo, mouse; details: for diarrhea induction: mice
# Procedure: FIG. 1 depicts diarrhea induction by Compound C treatment in WT and M1R KO mice (hereinafter sometimes to be indicated as “MIKO mouse” in the present DESCRIPTION) (Example 11). […] The maximum score during the observation was adopted.
# On the day of the experiment, mice were randomly divided into four groups (n=6-9). […] Each mouse was treated with either vehicle (10 or 20 mL/kg) or a single dose of each compound, including Compound A (3, 10 or 30 mg/kg p.o.), Compound B (10, 30, 100, 300 or 1,000 mg/kg p.o.) or Compound C (10 mg/kg p.o.). The animals were monitored, and scored the severity of diarrhea at 0.5, 1, 2, 4 and 6 h after administration. […] The highest score during the observation was adopted.
# [2] = biological target: T1, human M1R (Homo sapiens, UniProt P11229); experiment: Binding modulation assay, displacement of [3H]-pirenzepine by ACh, FreeStyle 293 cell membranes; design: expressed in transfected cells; host or cells: FreeStyle 293 cells (transient), cell membranes; details: for Kb: affinity of the PAM to the free M1R, read-out: pKB Mean (converted); for log α Mean / α-value: binding cooperativity between ACh and PAM
# T1 sequence (P11229 1-460): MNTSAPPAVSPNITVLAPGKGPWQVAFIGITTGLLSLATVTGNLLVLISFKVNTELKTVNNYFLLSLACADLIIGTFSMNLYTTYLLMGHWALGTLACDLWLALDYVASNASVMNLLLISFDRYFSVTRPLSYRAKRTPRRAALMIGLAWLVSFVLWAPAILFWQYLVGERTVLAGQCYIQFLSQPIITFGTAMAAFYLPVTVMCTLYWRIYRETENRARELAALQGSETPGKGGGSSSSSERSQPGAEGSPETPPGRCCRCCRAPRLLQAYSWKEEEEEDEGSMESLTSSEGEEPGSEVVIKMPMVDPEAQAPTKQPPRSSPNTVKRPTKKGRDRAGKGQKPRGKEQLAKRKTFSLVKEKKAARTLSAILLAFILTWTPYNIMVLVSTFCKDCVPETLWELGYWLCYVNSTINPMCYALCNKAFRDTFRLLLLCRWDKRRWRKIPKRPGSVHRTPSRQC
# Procedure: Binding assay was performed in 96-well plate format. Cell membranes from FreeStyle 293 cells transiently expressed human M1R were incubated with test compounds, ACh and 4 nM [^3H]-pirenzepine in an assay buffer (20 mM HEPES, 100 mM NaCl, 10 mM MgCl2, 0.1% fatty acid free BSA). After 2 h incubation at room temperature, cell membranes were transferred to GF/C filter plates (PerkinElmer, Massachusetts, USA) using cell-harvester (PerkinElmer) and washed 5 times with 300 μL of 50 mM Tris-HCl. Then, GF/C plates were dried at 42° C. 25 μL of microscint 0 (PerkinElmer) was added and the radioactivity was measured by Topcount (PerkinElmer). Non-specific bound was defined in the presence of 10 μM atropine.
# All data were analyzed using GraphPad Prism 5 software (GraphPad Software Inc., California, USA). Radioligand binding data were globally fitted to the following allosteric ternary complex model:
# [formula] where Y is the percentage of specific binding; [A], [B], and [C] are the concentrations of ACh, the allosteric modulator, and [^3H]-pirenzepine, respectively; KA, KB, and KC denote the equilibrium dissociation constants of ACh, the allosteric modulator, and [^3H]-pirenzepine, respectively; and αAB and […] are the cooperativities between the allosteric modulator and ACh or [^3H]-pirenzepine, respectively. […] The functional interactions between M1 PAMs and ACh were globally fitted to the following operational model of allosterism (Nat Rev Drug Discov. 2009; 8(1): 41-54 and Trends Pharmacol Sci. 2007; 28(8): 382-9)
# [3] = biological target: T2, M2R (Homo sapiens, UniProt P08172); experiment: Ca2+ flux PAM activity against other muscarinic receptor subtypes, M2R; type: cell-based; details: in the presence of EC20 ACh; read-out: PAM activity against other muscarinic receptor subtypes M2R pIP
# T2 sequence (P08172 1-466): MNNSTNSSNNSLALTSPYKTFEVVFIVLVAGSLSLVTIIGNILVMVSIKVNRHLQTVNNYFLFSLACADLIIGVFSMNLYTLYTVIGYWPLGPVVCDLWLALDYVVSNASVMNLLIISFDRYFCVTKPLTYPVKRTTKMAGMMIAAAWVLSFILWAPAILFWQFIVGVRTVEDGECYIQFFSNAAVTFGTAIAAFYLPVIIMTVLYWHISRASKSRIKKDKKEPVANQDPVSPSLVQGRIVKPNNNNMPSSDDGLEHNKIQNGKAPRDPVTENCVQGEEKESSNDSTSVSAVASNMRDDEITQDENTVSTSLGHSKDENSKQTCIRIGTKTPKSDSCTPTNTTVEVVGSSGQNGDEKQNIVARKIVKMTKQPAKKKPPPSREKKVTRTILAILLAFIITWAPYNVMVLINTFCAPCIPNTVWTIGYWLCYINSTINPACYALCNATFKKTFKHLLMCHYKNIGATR
# [4] = biological target: T3, M5R (Homo sapiens, UniProt P08912); experiment: Ca2+ flux PAM activity against other muscarinic receptor subtypes, M5R; type: cell-based; details: in the presence of EC20 ACh; read-out: PAM activity against other muscarinic receptor subtypes M5R pIP
# T3 sequence (P08912 1-532): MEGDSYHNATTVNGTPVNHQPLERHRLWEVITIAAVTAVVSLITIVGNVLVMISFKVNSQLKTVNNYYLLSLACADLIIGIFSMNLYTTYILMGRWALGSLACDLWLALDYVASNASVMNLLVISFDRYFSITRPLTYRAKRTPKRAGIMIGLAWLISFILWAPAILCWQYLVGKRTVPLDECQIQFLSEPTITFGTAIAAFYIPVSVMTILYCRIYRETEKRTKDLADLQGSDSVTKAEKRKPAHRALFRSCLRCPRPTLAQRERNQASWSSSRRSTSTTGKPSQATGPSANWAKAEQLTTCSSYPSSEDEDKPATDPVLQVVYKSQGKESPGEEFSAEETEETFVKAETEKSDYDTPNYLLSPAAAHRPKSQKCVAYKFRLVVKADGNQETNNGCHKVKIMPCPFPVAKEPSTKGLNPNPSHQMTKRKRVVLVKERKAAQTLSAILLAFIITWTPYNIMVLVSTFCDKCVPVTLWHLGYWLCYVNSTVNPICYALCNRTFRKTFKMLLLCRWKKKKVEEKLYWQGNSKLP
SMILES,diarrhea induction ([1]; 10 and 30 mg/kg p.o.),Kb [2] [µM],log α Mean [2],α-value [2],pEC50 [3],pEC50 [4],diarrhea induction ([1]; up to 1000 mg/kg p.o.),"diarrhea induction in M1R KO mice ([1]; 10 mg/kg p.o., M1R KO mice)","diarrhea induction in WT mice ([1]; 10 mg/kg p.o., WT mice)"
"Cn1ccc(-c2ccc(CN3Cc4cccc(O[C@H]5CCCC[C@@H]5O)c4C3=O)cc2)n1 [Compound A, 7-(((1S,2S)-2-hydroxycyclohexyl)oxy)-2-(4-(1-methyl-1H-pyrazol-3-yl)benzyl)isoindolin-1-one]",caused severe diarrhea,26.3,3.30,2371,< 5.00,< 5.00,–,–,–
"Cn1cc(-c2ccc(CN3Cc4cccc(Oc5c(F)cccc5C#N)c4C3=O)cc2)cn1 [Compound B, 3-fluoro-2-((2-(4-(1-methyl-1H-pyrazol-4-yl)benzyl)-3-oxo-2,3-dihydro-1H-isoindol-4-yl)oxy)benzonitrile]",–,0.977,1.18,16,< 5.00,< 5.00,did not induce severe diarrhea,–,–
"Cn1cc(-c2ccc(Cc3cc4c(=O)n([C@H]5CCCC[C@@H]5O)cnc4c4ccccc34)cn2)cn1 [Compound C, 3-((1S,2S)-2-hydroxycyclohexyl)-6-((6-(1-methyl-1H-pyrazol-4-yl)pyridin-3-yl)methyl)benzo[h]quinazoline-4(3H)-one, reference compound]",–,0.288,3.25,1786,< 5.00,< 5.00,–,not in M1R KO mice,induced diarrhea
"Cc1c(Cc2ccc(-n3cccn3)cc2)cc2c(c1F)CN([C@H]1COCC[C@@H]1O)C2=O [Compound D, 4-fluoro-2-[(3S,4S)-4-hydroxytetrahydro-2H-pyran-3-yl]-5-methyl-6-[4-(1H-pyrazol-1-yl)benzyl]-2,3-dihydro-1H-isoindol-1-one]",–,–,–,199,–,–,–,–,–
"O=c1c2cn(Cc3ccc(-n4cccn4)cc3)c3ccccc3c-2nn1-c1ccccc1F [Compound E, 2-(2-fluorophenyl)-5-(4-(1H-pyrazol-1-yl)benzyl)-2,5-dihydro-3H-pyrazolo[4,3-c]quinolin-3-one, reference compound]",–,3.09,2.67,–,< 5.00,< 5.00,–,–,–
"Cn1cc(-c2ccc(CN3Cc4cccc(OCCN5CCCCC5)c4C3=O)cc2)cn1 [Compound F, 2-(4-(1-methyl-1H-pyrazol-4-yl)benzyl)-7-(2-(piperidin-1-yl)ethoxy)isoindolin-1-one]",–,9.12,1.54,–,< 5.00,< 5.00,–,–,–
"Cn1cc(-c2ccc(CN3Cc4cccc(-c5ccn[nH]5)c4C3=O)cc2)cn1 [Compound G, 2-(4-(1-methyl-1H-pyrazol-4-yl)benzyl)-7-(1H-pyrazol-5-yl)isoindolin-1-one]",–,14.8,0.56,–,< 5.00,< 5.00,–,–,–

# From patent publication US12298319B2, “Method for measuring alpha value of muscarinic M1 receptor positive allosteric modulators” (Takeda Pharmaceutical Company Limited, priority 2017, dated 2025)
